The values below come from patent US8183048B2, “Assay for screening/ranking antioxidants based on their effects on membrane sterol lateral organization” (Temple University- Of the Commonwealth System of Higher …, priority 2007, dated 2012).

Test [1] in a line: AAPH-induced sterol oxidation, initial rate (Ri) vs sterol mol %. In kind it is biochemical. From the text:
The main purpose of this assay is to determine the Cth value for the antioxidant ALA, which is both water and lipid soluble. […] Ri came from monitoring DHE fluorescence intensity after addition of AAPH. […] In this case (the right panel in the flow chart—FIG. 9), the initial rate of sterol oxidation (Ri), instead of the lag phase, is used as the parameter to reflect the potency of an antioxidant activity. […] The membrane system is: 1-palmitoyl-2-oleoyl-L-α-phosphatidylcholine (POPC)/porcine brain sphingomyelins (pSPMs)/DHE LUVs. This biphasic change is expected from the sterol superlattice theory and is consistent with our previous finding (43). […] In this case, the Cth value is determined to be >>5 mM, if there is any. Vertical bars are the standard deviations from three independently prepared samples. The experiment was carried out at 37-42° C.
The term “Ri” as used herein means the initial rate of sterol oxidation in sec^−1. Ri can be calculated as follows: Ri equals [(Normalized fluorescence intensity of DHE at time t) minus (normalized fluorescence intensity of DHE at time 0)] divided by (t−0). Initial rate of sterol oxidation is calculated from the slope of DHE fluorescence intensity decrease vs time. […] Each sample set spanning a critical mole fraction must be analyzed separately in order to get an accurate picture for that particular set of vesicles. […] One reason for these slight variations is due to the high sensitivity of fluorescence signals. Fluorescence intensity is a relative value, depending on the amount of fluorophore in the cuvette, sample mixing, temperature fluctuations, and quenching due to impurities in the sample. For this reason, each complete set is analyzed separately, but all sets are normalized so that they can be compared to each other. Each sample set is analyzed by examining the first five to ten minutes of fluorescence decay in a sequential manner. […] Within a sample set, the deviation from linearity can be determined, and the number of minutes that will be used to calculate the initial rate can be defined. […]

The nature of test [2]: AAPH-induced DHE oxidation, antioxidant-induced lag phase vs sterol mol % (sterol superlattice assay). In kind it is biochemical. Here is the method:
Two-component or multi-component models of large unilamellar vesicles (LUVs) containing DHE (dehydroergosterol) are prepared as described above. The sizes of LUVs are in the range of 100-800 nm in diameter. [Please quantify the term “large”]. A prooxidant or a free radical generator is added to a fluorescence cuvette containing LUVs that have been incubated with an antioxidant. In certain embodiments, sterol oxidation was induced by a water-soluble free radical generator, AAPH (2,2′-azobis(2-amidinopropane) dihydrochloride). […] Plotting the lag phase length (τ) (or the initial rate Ri, in the case of lacking lag phase) vs sterol mole fraction in the presence of low dose antioxidant, a biphasic change in (or Ri) at a given Cr (e.g., 20.0, 22.2, 25.0, 33.3, 40.0 and 50.0 mol % sterol) is observed (see FIGS. 4, 8, and 9). This experiment will be repeated at different antioxidant doses. A threshold antioxidant concentration (Cth) is the highest antioxidant concentration at which the biphasic change in τ with sterol mol % may still be detected. The τ, Ri, and Cth values will give information about the antioxidant activity or potency and side effects. The τ and Ri values will give information about the antioxidant activity or potency. […] The ratio of the Ri value in the presence of antioxidants to that in the absence of antioxidants (Ri/Rio) also reflects the potency of the antioxidant. […] The Cth value indicates the potential toxicity of the antioxidant. The lower the Cth value is, the higher the potential damage to cell membranes becomes. The Cth values will be determined based on the capability of the antioxidant to abolish the biphasic change of either τ or Ri with membrane sterol mole fraction. All of the antioxidants, either producing τ or Ri, can be compared and ranked based on the Cth values.
Dehydroergosterol (DHE; Sigma, St. Louis, Mo.) was first purified by HPLC, and then dissolved in CHCl3 to make a stock solution. The concentration of DHE stock solution was calculated by absorbance in dioxane at 326 nm, using an extinction coefficient equal to 10,600 M^−1 cm^−1. DMPC was purchased from Avanti Polar Lipids (Alabaster, Ala.). The concentration of DMPC in stock solution and in LUVs was determined by the method of Bartlett (61). The prooxidant AAPH ((2,2′-azobis(2-amidinopropane) dihydrochloride) was obtained from Aldrich (Milwaukee, Wis.). Ascorbic acid and ascorbyl palmitate were purchased from Sigma.
Calculated amounts of DMPC and DHE were pipetted into tubes and dried under N2 until there was no visible solvent; lipids were then dried overnight under vacuum. Next, lipids were reconstituted at 37° C. with 5.0 mL of 50 mM Tris-HCl buffer at pH 7.0 (containing 0.02% NaN3 and 0.1 mM EDTA), then flushed with N2, and vortexed for 2 min at 37° C. to form multilamellar vesicles (MLVs). The MLVs were cooled to 4° C. for 30 min and then incubated at 37° C. for 30 min. This cooling/heating cycle was repeated three times to ensure an even distribution of lipids within each monolayer of the vesicles. After being exposed to three cycles of heat/cold to allow for thorough mixing, vesicles were left for 4 days at room temperature to come to thermal equilibrium. LUVs were then prepared from MLVs by extrusion (Lipex Biomembranes Inc., Vancouver, BC, Canada). The MLVs were extruded at 37° C. 10 times through two stacked 200 nm Nucleopore polycarbonate filters (Costar) under nitrogen gas pressure to form homogeneous LUVs. To avoid auto-oxidation of sterol, the LUV samples were flushed with argon, sealed, and stored in a dessicator chamber under vacuum at room temperature for seven days prior to sterol oxidation measurements (50). During this time, phosphorus concentration was measured again to determine new phospholipid concentration after loss by extrusion (53).
A typical LUV sample set spanned a predicted critical sterol mole fraction (Cr) for maximal superlattice formation. […]

[3] abbreviates: sample set 23.8-26.2 mol %, Cr 25.0 mol %, FIG. 5.
The mark [4] stands for this setting: sample set 38.8-41.2 mol %, Cr 40.0 mol %, FIG. 6.

Where “and” joins values, the source holds several entries; their conditions need not be identical. Identical values can stand only once. Entries after “also recorded” stand apart in the source; their conditions may differ.

As for `O=C(O)CCCCC1CCSS1` (stereo not drawn) [ALA, alpha lipoic acid], the “lag phase in AAPH-induced sterol oxidation” value in test [1] (AAPH-induced DHE fluorescence decay) is given as “does not generate a lag phase”. For the same compound, the “effect on initial rate of sterol oxidation (Ri)” value in test [1] (AAPH-induced DHE oxidation, increasing ALA doses) is “Ri decreases with increasing ALA doses; also recorded: dose-dependent decrease”. The “Cth (from biphasic change of Ri with sterol content)” value in test [1] (POPC/pSPMs/DHE LUVs, Cr 20.0 mol %, 37-42° C., FIG. 8) is on record as > 5 mM.
Turning to `O=C1O[C@H]([C@@H](O)CO)C(O)=C1O` [ascorbic acid], the “Cth (threshold antioxidant concentration above which biphasic profile of lag phase at Cr is no longer observable)” value in test [2] (sample set 18.8-21.2 mol % DHE in DMPC, Cr 20.0 mol %, FIG. 4) is ≥ 30 µM. Further, the figures for the “Cth (biphasic change in lag phase with sterol content abolished)” value in test [2] (setting [3]) and in test [2] (setting [4]) were ≥ 30 µM and ≥ 120 µM, respectively.
Regarding `CCCCCCCCCCCCCCCC(=O)OC[C@H](O)[C@H]1OC(=O)C(O)=C1O` [ascorbyl palmitate], in test [2] (DMPC/DHE LUVs, 37° C., all three sample sets (Cr 20.0, 25.0, 40.0 mol %)), the “Cth (threshold antioxidant concentration for sterol superlattice disruption)” value was 13 to 15 µM and 13.1 to 15.0 µM. Also, the “lag phase length relative to ascorbic acid” value in test [2] (same apparent dose, FIGS. 2 and 3) is on record as “much more potent; also recorded: about three”. The “Cth (biphasic change in lag phase with sterol content abolished)” value lay within 11.3 to 15.0 µM in test [2] (setting [3]) and 13.1 to 15.0 µM in test [2] (setting [4]). For the same compound, the “concentration at which the biphasic profile of lag phase is obliterated” value in test [2] (sample set spanning Cr 20.0 mol % DHE, FIG. 4) was ≥ 15.0 µM; in test [2] (sample set spanning Cr 25.0 mol % DHE, FIG. 5) it was ≥ 15.0 µM; in test [2] (sample set spanning Cr 40.0 mol % DHE, FIG. 6), ≥ 15.0 µM.
